Measurements taken from ChEMBL document CHEMBL3864192, “Discovery and Optimization of Two Eis Inhibitor Families as Kanamycin Adjuvants against Drug-Resistant M. tuberculosis” (ACS Med Chem Lett, 2016).
Active and inactive are the calls of the source. No cut-off for these calls is given here.

Legend:
[1] = tested on: Mycobacterium tuberculosis; test: Inhibition of Mycobacterium tuberculosis K204 Eis assessed as kanamycin MIC at 100 uM preincubated for 24 hrs followed by kanamycin addition measured after 6 days by Alamar blue assay (Rvb >= 10 ug/ml)
[2] = tested on: Mycobacterium tuberculosis; test: Potentiation of kanamycin induced-antimicrobial activity against Mycobacterium tuberculosis H37Rv at 100 uM preincubated for 24 hrs followed by kanamycin addition measured after 6 days by Alamar blue assay; type: functional
[3] = target: T1, N-acetyltransferase Eis (Mycobacterium tuberculosis (strain ATCC 25618 / H37Rv), UniProt P9WFK7); test: Inhibition of Mycobacterium tuberculosis H37Rv Eis expressed in Escherichia coli BL21(DE3) using Acetyl-CoA as substrate preincubated for 10 mins followed by substrate addition measured every 30 sec for 10 mins
T1 sequence (P9WFK7 whole entry): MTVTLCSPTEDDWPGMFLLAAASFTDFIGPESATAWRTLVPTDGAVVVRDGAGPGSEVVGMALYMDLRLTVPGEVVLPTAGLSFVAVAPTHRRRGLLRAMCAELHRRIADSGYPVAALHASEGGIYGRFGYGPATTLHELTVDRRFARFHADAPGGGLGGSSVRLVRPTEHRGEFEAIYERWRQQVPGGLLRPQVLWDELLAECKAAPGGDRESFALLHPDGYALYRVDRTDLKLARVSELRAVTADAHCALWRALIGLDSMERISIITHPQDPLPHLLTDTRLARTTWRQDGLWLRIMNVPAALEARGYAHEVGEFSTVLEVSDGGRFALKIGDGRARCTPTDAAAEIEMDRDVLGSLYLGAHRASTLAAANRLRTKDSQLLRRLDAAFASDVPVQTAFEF

[4] = tested on: Mycobacterium tuberculosis; test: Potentiation of kanamycin induced-antimicrobial activity against Mycobacterium tuberculosis H37Rv at 52.6 uM preincubated for 24 hrs followed by kanamycin addition measured after 6 days by Alamar blue assay; type: functional
[5] = tested on: Mycobacterium tuberculosis; test: Inhibition of Mycobacterium tuberculosis K204 Eis assessed as kanamycin MIC at 52.6 uM preincubated for 24 hrs followed by kanamycin addition measured after 6 days by Alamar blue assay (Rvb >= 10 ug/ml)
[6] = tested on: Mycobacterium tuberculosis; test: Inhibition of Mycobacterium tuberculosis K204 Eis assessed as kanamycin MIC at 32.6 uM preincubated for 24 hrs followed by kanamycin addition measured after 6 days by Alamar blue assay (Rvb >= 10 ug/ml)
[7] = tested on: Mycobacterium tuberculosis; test: Potentiation of kanamycin induced-antimicrobial activity against Mycobacterium tuberculosis H37Rv at 32.6 uM preincubated for 24 hrs followed by kanamycin addition measured after 6 days by Alamar blue assay; type: functional
[8] = tested on: Mycobacterium tuberculosis; test: Potentiation of kanamycin induced-antimicrobial activity against Mycobacterium tuberculosis H37Rv at 29.7 uM preincubated for 24 hrs followed by kanamycin addition measured after 6 days by Alamar blue assay; type: functional
[9] = tested on: Mycobacterium tuberculosis; test: Inhibition of Mycobacterium tuberculosis K204 Eis assessed as kanamycin MIC at 29.7 uM preincubated for 24 hrs followed by kanamycin addition measured after 6 days by Alamar blue assay (Rvb >= 10 ug/ml)
[10] = target: T2, N-acetyltransferase Eis (Mycobacterium tuberculosis (strain ATCC 25618 / H37Rv)) (UniProt P9WFK7); test: Inhibition of Mycobacterium tuberculosis H37Rv Eis expressed in Escherichia coli BL21(DE3) at 20 uM using Acetyl-CoA as substrate after 5 mins by HTS assay
T2 sequence (whole entry): T1 sequence (P9WFK7 whole entry)

[11] = tested on: Mycobacterium tuberculosis; test: Potentiation of kanamycin induced-antimicrobial activity against Mycobacterium tuberculosis H37Rv at 1.5 uM preincubated for 24 hrs followed by kanamycin addition measured after 6 days by Alamar blue assay; type: functional
[12] = tested on: Mycobacterium tuberculosis; test: Inhibition of Mycobacterium tuberculosis K204 Eis assessed as kanamycin MIC at 1.5 uM preincubated for 24 hrs followed by kanamycin addition measured after 6 days by Alamar blue assay (Rvb >= 10 ug/ml)
[13] = tested on: Mycobacterium tuberculosis; test: Inhibition of Mycobacterium tuberculosis K204 Eis assessed as kanamycin MIC at 64.5 uM preincubated for 24 hrs followed by kanamycin addition measured after 6 days by Alamar blue assay (Rvb >= 10 ug/ml)
[14] = tested on: Mycobacterium tuberculosis; test: Potentiation of kanamycin induced-antimicrobial activity against Mycobacterium tuberculosis H37Rv at 64.5 uM preincubated for 24 hrs followed by kanamycin addition measured after 6 days by Alamar blue assay; type: functional
[15] = tested on: Mycobacterium tuberculosis; test: Inhibition of Mycobacterium tuberculosis K204 Eis assessed as kanamycin MIC at 15.5 uM preincubated for 24 hrs followed by kanamycin addition measured after 6 days by Alamar blue assay (Rvb >= 10 ug/ml)
[16] = tested on: Mycobacterium tuberculosis; test: Potentiation of kanamycin induced-antimicrobial activity against Mycobacterium tuberculosis H37Rv at 15.5 uM preincubated for 24 hrs followed by kanamycin addition measured after 6 days by Alamar blue assay; type: functional
[17] = tested on: Mycobacterium tuberculosis; test: Potentiation of kanamycin induced-antimicrobial activity against Mycobacterium tuberculosis H37Rv at 54.2 uM preincubated for 24 hrs followed by kanamycin addition measured after 6 days by Alamar blue assay; type: functional
[18] = tested on: Mycobacterium tuberculosis; test: Inhibition of Mycobacterium tuberculosis K204 Eis assessed as kanamycin MIC at 54.2 uM preincubated for 24 hrs followed by kanamycin addition measured after 6 days by Alamar blue assay (Rvb >= 10 ug/ml)
[19] = tested on: Mycobacterium tuberculosis; test: Inhibition of Mycobacterium tuberculosis K204 Eis assessed as kanamycin MIC at 8.9 uM preincubated for 24 hrs followed by kanamycin addition measured after 6 days by Alamar blue assay (Rvb >= 10 ug/ml)
[20] = tested on: Mycobacterium tuberculosis; test: Potentiation of kanamycin induced-antimicrobial activity against Mycobacterium tuberculosis H37Rv at 8.9 uM preincubated for 24 hrs followed by kanamycin addition measured after 6 days by Alamar blue assay; type: functional
[21] = tested on: Mycobacterium tuberculosis; test: Inhibition of Mycobacterium tuberculosis K204 Eis assessed as kanamycin MIC at 25.1 uM preincubated for 24 hrs followed by kanamycin addition measured after 6 days by Alamar blue assay (Rvb >= 10 ug/ml)
[22] = tested on: Mycobacterium tuberculosis; test: Potentiation of kanamycin induced-antimicrobial activity against Mycobacterium tuberculosis H37Rv at 25.1 uM preincubated for 24 hrs followed by kanamycin addition measured after 6 days by Alamar blue assay; type: functional
[23] = tested on: Mycobacterium tuberculosis; test: Inhibition of Mycobacterium tuberculosis K204 Eis assessed as kanamycin MIC at 33.9 uM preincubated for 24 hrs followed by kanamycin addition measured after 6 days by Alamar blue assay (Rvb >= 10 ug/ml)
[24] = tested on: Mycobacterium tuberculosis; test: Potentiation of kanamycin induced-antimicrobial activity against Mycobacterium tuberculosis H37Rv at 33.9 uM preincubated for 24 hrs followed by kanamycin addition measured after 6 days by Alamar blue assay; type: functional

| Structure (SMILES) | MIC [1] [µg/mL] | MIC [2] [µg/mL] | IC50 [3] [nM] | also measured |
| --- | --- | --- | --- | --- |
| COC(=O)c1cc2occc2n1CC(=O)c1ccccc1F | 10 | ≤ 1.25 |  |  |
| Cc1ccc(C(=O)CN2C(=O)C3(OCCO3)c3ccccc32)cc1 | 5 to 10 | ≤ 1.25 |  |  |
| COC(=O)c1cc2occc2n1CC(=O)c1cccc(Br)c1 |  |  | 500 | MIC [4]: ≤ 1.25 µg/mL; MIC [5]: > 10 µg/mL |
| COC(=O)c1cc2occc2n1CC(=O)C(C)(C)C | > 10 | ≤ 1.25 | > 200000 |  |
| O=C(CN1C(=O)C2(OCCO2)c2ccccc21)c1ccccc1 |  |  | 330 | MIC [6]: 5 µg/mL; MIC [7]: ≤ 1.25 µg/mL |
| O=C(CN1C(=O)C2(OCCO2)c2ccccc21)c1cccc([N+](=O)[O-])c1 | 5 to 10 | ≤ 1.25 |  |  |
| CCC(=O)Cn1c(C(=O)OC)cc2occc21 | > 10 | ≤ 1.25 | > 200000 |  |
| COC(=O)c1cc2occc2n1CC(=O)c1ccc2ccccc2c1 | 10 | ≤ 1.25 |  |  |
| O=C(CN1C(=O)C2(OCCO2)c2ccccc21)c1cccc(F)c1 |  |  |  | MIC [8]: ≤ 1.25 µg/mL; MIC [9]: 2.5 to 5 µg/mL |
| COC(=O)c1cc2occc2n1CC(=O)c1cccc(OC)c1 | > 10 | ≤ 1.25 | > 200000 |  |
| CCC(=O)CN1C(=O)C2(OCCO2)c2ccccc21 | > 10 | ≤ 1.25 | > 200000 |  |
| COC(=O)c1cc2occc2n1CC(=O)c1ccccc1 | 5 to 10 | ≤ 1.25 |  | inhibition [10]: Active |
| O=C(CN1C(=O)C2(OCCO2)c2ccccc21)c1cccc(Cl)c1 |  |  |  | MIC [11]: ≤ 1.25 µg/mL; MIC [12]: > 10 µg/mL |
| COC(=O)c1cc2occc2n1CC(=O)c1ccc(C)cc1 | 5 to 10 | ≤ 1.25 |  |  |
| COC(=O)c1cc2occc2n1CC(=O)c1ccc(Br)cc1 | > 10 | ≤ 1.25 |  |  |
| COC(=O)c1cc2occc2n1CC(=O)c1ccc(Cl)cc1 |  |  |  | MIC [13]: > 10 µg/mL; MIC [14]: ≤ 1.25 µg/mL |
| COC(=O)c1cc2occc2n1CC(=O)c1cccc(F)c1 |  |  |  | MIC [15]: 10 µg/mL; MIC [16]: ≤ 1.25 µg/mL |
| O=C(CN1C(=O)C2(OCCO2)c2ccccc21)c1ccc2ccccc2c1 | 10 | ≤ 1.25 |  |  |
| O=C(CN1C(=O)C2(OCCO2)c2ccccc21)c1cccc(Br)c1 |  |  |  | MIC [17]: ≤ 1.25 µg/mL; MIC [18]: 5 to 10 µg/mL |
| O=C(CN1C(=O)C2(OCCO2)c2ccccc21)c1ccc(F)cc1 |  |  | 90 | inhibition [10]: Active; MIC [19]: 5 µg/mL; MIC [20]: ≤ 1.25 µg/mL |
| O=C(CN1C(=O)C2(OCCO2)c2ccccc21)c1ccccc1F | 10 | ≤ 1.25 |  |  |
| O=C(CN1C(=O)C2(OCCO2)c2ccccc21)c1ccc(Br)cc1 | > 10 | ≤ 1.25 | > 200000 | inhibition [10]: Active |
| CC(C)(C)C(=O)CN1C(=O)C2(OCCO2)c2ccccc21 | > 10 | ≤ 1.25 | > 200000 |  |
| COc1cccc(C(=O)CN2C(=O)C3(OCCO3)c3ccccc32)c1 | > 10 | ≤ 1.25 |  |  |
| O=C(CN1C(=O)C2(OCCO2)c2ccccc21)c1ccc(Cl)cc1 | 5 to 10 | ≤ 1.25 | 2200 | inhibition [10]: Active |
| COC(=O)c1cc2occc2n1CC(=O)c1cccc(Cl)c1 |  |  |  | MIC [21]: > 10 µg/mL; MIC [22]: ≤ 1.25 µg/mL |
| COC(=O)c1cc2occc2n1CC(=O)c1ccc(F)cc1 |  |  | 300 | MIC [23]: 10 µg/mL; MIC [24]: ≤ 1.25 µg/mL |
